Converted amounts (≈) assume the structure as drawn.
Tested on: Neisseria subflava/flavescens/perflava
Assay: minimum inhibitory concentration (ETEST)
Settings: population: general population, antibiotic use in previous 6 months: No
Protocol: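 Oropharyngeal Neisseria isolates from MSM and employees in Belgium were identified to species by MALDI-TOF MS. MICs of azithromycin, ceftriaxone and ciprofloxacin were determined by ETEST on GC agar after 24 h at 36.5 °C and 5-7% CO2, in mg/L. Values beyond the strip range are reported as >256 (azithromycin) or <0.016 (ceftriaxone); isolates that did not grow are NA.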

CO/N=C(\C(=O)N[C@@H]1C(=O)N2C(C(=O)O)=C(CSc3nc(=O)c(O)nn3C)CS[C@H]12)c1csc(N)n1 [ceftriaxone]
Settings	minimum inhibitory concentration [µg/mL]
isolate id (sample isolate): Co000762_4	0.094 (≈ 0.169 µM)
isolate id (sample isolate): Co000763_2	0.032 (≈ 0.0577 µM)
isolate id (sample isolate): Co000764_1	0.032 (≈ 0.0577 µM)
isolate id (sample isolate): Co000764_2	0.023 (≈ 0.0415 µM)
isolate id (sample isolate): Co000765_2	0.047 (≈ 0.0847 µM)
isolate id (sample isolate): Co000765_3	0.032 (≈ 0.0577 µM)
isolate id (sample isolate): Co000765_4	0.023 (≈ 0.0415 µM)
isolate id (sample isolate): Co000766_1	0.023 (≈ 0.0415 µM)
isolate id (sample isolate): Co000766_3	0.032 (≈ 0.0577 µM)
isolate id (sample isolate): Co000767_1	0.023 (≈ 0.0415 µM)
isolate id (sample isolate): Co000767_2	0.023 (≈ 0.0415 µM)
isolate id (sample isolate): Co000767_4	0.023 (≈ 0.0415 µM)
isolate id (sample isolate): Co000767_5	0.064 (≈ 0.115 µM)
isolate id (sample isolate): Co000767_6	0.023 (≈ 0.0415 µM)
isolate id (sample isolate): Co000767_7	0.047 (≈ 0.0847 µM)
isolate id (sample isolate): Co000768_1	0.023 (≈ 0.0415 µM)
isolate id (sample isolate): Co000768_2	0.023 (≈ 0.0415 µM)
isolate id (sample isolate): Co000769_1	0.047 (≈ 0.0847 µM)
isolate id (sample isolate): Co000769_2	0.023 (≈ 0.0415 µM)
isolate id (sample isolate): Co000769_4	0.064 (≈ 0.115 µM)
isolate id (sample isolate): Co000770_2	0.032 (≈ 0.0577 µM)
isolate id (sample isolate): Co000770_4	0.032 (≈ 0.0577 µM)
isolate id (sample isolate): Co000770_6	0.032 (≈ 0.0577 µM)
isolate id (sample isolate): Co000771_2	0.064 (≈ 0.115 µM)
isolate id (sample isolate): Co000771_3	0.016 (≈ 0.0289 µM)
isolate id (sample isolate): Co000771_5	0.064 (≈ 0.115 µM)
isolate id (sample isolate): Co000772_1	0.064 (≈ 0.115 µM)
isolate id (sample isolate): Co000772_2	0.064 (≈ 0.115 µM)
isolate id (sample isolate): Co000772_4	0.023 (≈ 0.0415 µM)
isolate id (sample isolate): Co000772_5	0.023 (≈ 0.0415 µM)
isolate id (sample isolate): Co000772_6	0.016 (≈ 0.0289 µM)
isolate id (sample isolate): Co000773_1	0.064 (≈ 0.115 µM)
isolate id (sample isolate): Co000773_2	0.064 (≈ 0.115 µM)
isolate id (sample isolate): Co000774_2	0.016 (≈ 0.0289 µM)
isolate id (sample isolate): Co000775_1	0.032 (≈ 0.0577 µM)
isolate id (sample isolate): Co000775_2	0.047 (≈ 0.0847 µM)
isolate id (sample isolate): Co000775_3	0.094 (≈ 0.169 µM)
isolate id (sample isolate): Co000776_2	0.125 (≈ 0.225 µM)
isolate id (sample isolate): Co000776_3	0.125 (≈ 0.225 µM)
isolate id (sample isolate): Co000777_1	0.064 (≈ 0.115 µM)
isolate id (sample isolate): Co000777_2	0.047 (≈ 0.0847 µM)
isolate id (sample isolate): Co000777_4	0.047 (≈ 0.0847 µM)
isolate id (sample isolate): Co000778_1	0.094 (≈ 0.169 µM)
isolate id (sample isolate): Co000778_2	0.047 (≈ 0.0847 µM)
isolate id (sample isolate): Co000778_3	0.094 (≈ 0.169 µM)
isolate id (sample isolate): Co000780_4	0.125 (≈ 0.225 µM)
isolate id (sample isolate): Co000781_1	0.094 (≈ 0.169 µM)
isolate id (sample isolate): Co000781_3	0.064 (≈ 0.115 µM)
isolate id (sample isolate): Co000781_4	0.094 (≈ 0.169 µM)
isolate id (sample isolate): Co000782_2	0.047 (≈ 0.0847 µM)
isolate id (sample isolate): Co000782_3	0.25 (≈ 0.451 µM)
isolate id (sample isolate): Co000782_4	0.047 (≈ 0.0847 µM)
isolate id (sample isolate): Co000783_1	0.125 (≈ 0.225 µM)
isolate id (sample isolate): Co000783_2	0.032 (≈ 0.0577 µM)
isolate id (sample isolate): Co000783_5	0.032 (≈ 0.0577 µM)
isolate id (sample isolate): Co000784_1	0.023 (≈ 0.0415 µM)
isolate id (sample isolate): Co000784_2	0.047 (≈ 0.0847 µM)
isolate id (sample isolate): Co000784_5	0.032 (≈ 0.0577 µM)
isolate id (sample isolate): Co000785_1	0.047 (≈ 0.0847 µM)
isolate id (sample isolate): Co000785_2	0.047 (≈ 0.0847 µM)
isolate id (sample isolate): Co000785_3	0.064 (≈ 0.115 µM)
isolate id (sample isolate): Co000785_4	0.064 (≈ 0.115 µM)
isolate id (sample isolate): Co000786_1	0.032 (≈ 0.0577 µM)
isolate id (sample isolate): Co000786_2	0.064 (≈ 0.115 µM)
isolate id (sample isolate): Co000787_1	0.032 (≈ 0.0577 µM)
isolate id (sample isolate): Co000787_2	0.023 (≈ 0.0415 µM)
isolate id (sample isolate): Co000787_4	0.016 (≈ 0.0289 µM)
isolate id (sample isolate): Co000788_2	0.047 (≈ 0.0847 µM)
isolate id (sample isolate): Co000788_3	0.047 (≈ 0.0847 µM)
isolate id (sample isolate): Co000788_5	0.016 (≈ 0.0289 µM)
isolate id (sample isolate): Co000789_1	0.032 (≈ 0.0577 µM)
isolate id (sample isolate): Co000790_2	0.032 (≈ 0.0577 µM)
isolate id (sample isolate): Co000790_4	0.047 (≈ 0.0847 µM)

Reference: the supplement of paper PMC8741786
